These are literature values, as cited in paper PMC10531095, “Photonics of Some Monomethine Cyanine Dyes in Solutions and in Complexes with Biomolecules” (International Journal of Molecular Sciences, 2023).

This series deals with ssDNA. Details: method as in PMID 15249599. The conditions noted are these: ssDNA vs. dsDNA ref 62; cited from earlier work.

Consider `CCCN(CCCN(C)C)c1cc(/C=C2/Sc3ccccc3N2C)c2ccccc2[n+]1-c1ccccc1` [SYBR Green I], for which the “fluorescence increase with ssDNA, times lower than with dsDNA” value is reported as “about 11 times”.
